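The compound was tested at five concentrations on cells cultured in 96-well plates, with a 48-hour exposure period. GI50: concentration for 50% inhibition of growth.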 Active and inactive are the calls of the source. Cut-off read from the data, not from the text of the source: active = GI50 up to about 1.1 µM and inactive = higher.
How the values were obtained:
Test in all cases: DTP human tumour cell line panel, 48 h
[1] = tested on: A549
[2] = tested on: ACHN
[3] = tested on: EKVX
[4] = tested on: HCT-116
[5] = tested on: HL-60
[6] = tested on: HOP-62
[7] = tested on: Hs-578T
[8] = tested on: K562
[9] = tested on: KM12
[10] = tested on: MDA-N
[11] = tested on: Malme-3M
[12] = tested on: NCI-H460
[13] = tested on: NCI-H522
[14] = tested on: OVCAR-5
[15] = tested on: OVCAR-8
[16] = tested on: RXF 393
[17] = tested on: SNB-19
[18] = tested on: T47D
[19] = tested on: TK-10
[20] = tested on: UACC-62

Measured: GI50

CCOc1cc(NC(C)=O)ccc1C(=O)NN1C(=O)C(Cl)C1c1ccco1 (stereo not given)
inactive: [1] 18.7 µM | [2] 15.7 µM | [3] 17.9 µM | [4] 20.7 µM | [5] 18.4 µM | [6] 17.9 µM | [7] 21.8 µM | [8] 19.3 µM | [9] 18.5 µM | [10] 14.4 µM | [11] 11.7 µM | [12] 17.3 µM | [13] 10.6 µM | [14] 20.6 µM | [15] 43.5 µM | [16] 12.3 µM | [17] 17 µM | [18] 16.7 µM | [19] 17.4 µM | [20] 12.6 µM

CCOC(=O)c1c(N2CCOCC2)[nH]c(=O)c(C(c2c(O)c(C(=O)OCC)c(N3CCOCC3)[nH]c2=O)C(C)C)c1O
inactive: [1] > 100 µM | [2] > 100 µM | [3] > 100 µM | [4] > 100 µM | [5] > 100 µM | [6] 60.4 µM | [7] 47.9 µM | [8] > 100 µM | [9] > 100 µM | [10] > 100 µM | [11] > 100 µM | [12] > 100 µM | [13] > 100 µM | [14] 73.8 µM | [15] > 100 µM | [16] > 100 µM | [17] 83.6 µM | [18] > 100 µM | [19] > 100 µM | [20] > 100 µM

O=C1C(c2c(O)[nH]c3ccc(S(=O)(=O)O)cc23)=Nc2ccccc21
inactive: [1] > 100 µM | [2] > 100 µM | [3] > 100 µM | [4] > 100 µM | [5] > 100 µM | [6] > 100 µM | [7] > 100 µM | [8] > 100 µM | [9] > 100 µM | [10] > 100 µM | [11] > 100 µM | [12] > 100 µM | [13] > 100 µM | [14] > 100 µM | [15] > 100 µM | [16] > 100 µM | [17] > 100 µM | [18] 72.1 µM | [19] > 100 µM | [20] > 100 µM

— ChEMBL document CHEMBL1201862, “PubChem BioAssay data set” (2004)
